Like-named read-outs stand apart in the source and are kept apart here.
Assays:
[1] = Plasma pharmacokinetics of bimiralisib, non-compartmental analysis (LC-MS); type: in vivo, human; conditions: for AUC(0-t) / Cmax / Tmax: human, plasma, oral; for Cmax: read-out: Cmax Mean (%CV)
Method: Blood samples were collected to enable full PK profiling of bimiralisib. The PK samples were taken pre-dose and at 0.5, 1, 2, 4, 6, 8, and 24 h post-dosing in the three schedules, with additional timepoints depending on the schedule (48 h in the continuous schedule, 12, 16, and 48 h in intermittent schedule A and 12, 16, and 72 h in intermittent schedule B). PK sampling was repeated on cycle 1 Day 8 (continuous schedule: pre-dose and 1 h post-dose; intermittent schedules A and B: pre-dose and 0.5, 1, 2, 4, 6, 8, and 24 h post-dose), on cycle 1 Day 15 (continuous schedule: pre-dose and 0.5, 1, 2, 4, 6 and 8 h post-dose; intermittent schedules A and B: pre-dose and 4 h post-dose), and on cycle 2 Day 1 (continuous dosing: pre-dose and 1 h post-dose). Samples were sent to a central laboratory for analysis using liquid-chromatography mass spectrometry. The pharmacokinetics of bimiralisib were determined by non-compartmental analysis. Area under the concentration vs. time curve (AUC) was calculated using the linear up log down trapezoidal method. Accumulation was calculated as the ratio of cycle 1 on Day 15 AUC0–8h versus cycle 1 on Day -3 AUC0–8h.

[2] = system: head and neck squamous cancer with loss of function NOTCH1T1997M mutations; conditions: eight patients, intermittent bimiralisib regimen; cited from earlier work

Nc1cc(C(F)(F)F)c(-c2nc(N3CCOCC3)nc(N3CCOCC3)n2)cn1 [bimiralisib, 5-(4,6-Dimorpholino-1,3,5-triazin-2-yl)-4-(trifluoromethyl)pyridin-2-amine]
AUC(0-t) ([1]; 120 mg, Intermittent Dose Schedule A, 120 mg, Day -3, 4 patients, read-out: AUC0–24 Geometric Mean (%CV)): 5.59 µg·h/mL | Cmax ([1]; 120 mg, Intermittent Dose Schedule A, 120 mg, Day -3, 4 patients): 0.549 µg/mL | Tmax ([1]; 120 mg, Intermittent Dose Schedule A, 120 mg, Day -3, 4 patients, read-out: Tmax Median, (Range)): 3 h | AUC(0-t) ([1]; 120 mg, Intermittent Dose Schedule B, 120 mg, Day 1, 3 patients, read-out: AUC0–8 Geometric Mean (%CV)): 1.53 µg·h/mL | AUC(0-t) ([1]; 120 mg, Intermittent Dose Schedule B, 120 mg, Day 1, 3 patients, read-out: AUC0–24 Geometric Mean (%CV)): 3.34 µg·h/mL | Cmax ([1]; 120 mg, Intermittent Dose Schedule B, 120 mg, Day 1, 3 patients): 0.471 µg/mL | Tmax ([1]; 120 mg, Intermittent Dose Schedule B, 120 mg, Day 1, 3 patients, read-out: Tmax Median, (Range)): 1 h | AUC(0-t) ([1]; 120 mg, Intermittent Dose Schedule B, 120 mg, Day 8, 3 patients, read-out: AUC0–8 Geometric Mean (%CV)): 2.21 µg·h/mL | AUC(0-t) ([1]; 120 mg, Intermittent Dose Schedule B, 120 mg, Day 8, 3 patients, read-out: AUC0–24 Geometric Mean (%CV)): 5.85 µg·h/mL | Cmax ([1]; 120 mg, Intermittent Dose Schedule B, 120 mg, Day 8, 3 patients): 0.594 µg/mL | Tmax ([1]; 120 mg, Intermittent Dose Schedule B, 120 mg, Day 8, 3 patients, read-out: Tmax Median, (Range)): 1 h | AUC(0-t) ([1]; 140 mg, Intermittent Dose Schedule A, 140 mg, Day 8, 6 patients, read-out: AUC0–8 Geometric Mean (%CV)): 3.22 µg·h/mL | Cmax ([1]; 140 mg, Intermittent Dose Schedule A, 140 mg, Day 8, 6 patients): 0.923 µg/mL | Tmax ([1]; 140 mg, Intermittent Dose Schedule A, 140 mg, Day 8, 6 patients, read-out: Tmax Median, (Range)): 1 h | AUC(0-t) ([1]; 140 mg, Intermittent Dose Schedule A, 140 mg, Day 8, n = 3, read-out: AUC0–24 Geometric Mean (%CV)): 7.59 µg·h/mL | AUC(0-t) ([1]; 140 mg, Intermittent Dose Schedule A, 140 mg, Day -3, 6 patients, read-out: AUC0–8 Geometric Mean (%CV)): 2.58 µg·h/mL | AUC(0-t) ([1]; 140 mg, Intermittent Dose Schedule A, 140 mg, Day -3, 6 patients, read-out: AUC0–24 Geometric Mean (%CV)): 5.81 µg·h/mL | Cmax ([1]; 140 mg, Intermittent Dose Schedule A, 140 mg, Day -3, 6 patients): 0.709 µg/mL | Tmax ([1]; 140 mg, Intermittent Dose Schedule A, 140 mg, Day -3, 6 patients, read-out: Tmax Median, (Range)): 1 h | AUC(0-t) ([1]; 140 mg, Intermittent Dose Schedule B, 140 mg, Day 1, 3 patients, read-out: AUC0–8 Geometric Mean (%CV)): 4.15 µg·h/mL | AUC(0-t) ([1]; 140 mg, Intermittent Dose Schedule B, 140 mg, Day 1, 3 patients, read-out: AUC0–24 Geometric Mean (%CV)): 9.74 µg·h/mL | Cmax ([1]; 140 mg, Intermittent Dose Schedule B, 140 mg, Day 1, 3 patients): 1.01 µg/mL | Tmax ([1]; 140 mg, Intermittent Dose Schedule B, 140 mg, Day 1, 3 patients, read-out: Tmax Median, (Range)): 1 h | AUC(0-t) ([1]; 140 mg, Intermittent Dose Schedule B, 140 mg, Day 8, 3 patients, read-out: AUC0–8 Geometric Mean (%CV)): 5.16 µg·h/mL | Cmax ([1]; 140 mg, Intermittent Dose Schedule B, 140 mg, Day 8, 3 patients): 1.56 µg/mL | Tmax ([1]; 140 mg, Intermittent Dose Schedule B, 140 mg, Day 8, 3 patients, read-out: Tmax Median, (Range)): 1 h | AUC(0-t) ([1]; 140 mg, Intermittent Dose Schedule B, 140 mg, Day 8, n = 2, read-out: AUC0–24 Geometric Mean (%CV)): 12.6 µg·h/mL | AUC(0-t) ([1]; 160 mg, Intermittent Dose Schedule A, 160 mg, Day 8, 3 patients, read-out: AUC0–8 Geometric Mean (%CV)): 4.08 µg·h/mL | AUC(0-t) ([1]; 160 mg, Intermittent Dose Schedule A, 160 mg, Day 8, 3 patients, read-out: AUC0–24 Geometric Mean (%CV)): 11.1 µg·h/mL | Cmax ([1]; 160 mg, Intermittent Dose Schedule A, 160 mg, Day 8, 3 patients): 0.857 µg/mL | Tmax ([1]; 160 mg, Intermittent Dose Schedule A, 160 mg, Day 8, 3 patients, read-out: Tmax Median, (Range)): 2 h | AUC(0-t) ([1]; 160 mg, Intermittent Dose Schedule A, 160 mg, Day -3, 3 patients, read-out: AUC0–8 Geometric Mean (%CV)): 2.48 µg·h/mL | AUC(0-t) ([1]; 160 mg, Intermittent Dose Schedule A, 160 mg, Day -3, 3 patients, read-out: AUC0–24 Geometric Mean (%CV)): 5.83 µg·h/mL | Cmax ([1]; 160 mg, Intermittent Dose Schedule A, 160 mg, Day -3, 3 patients): 0.539 µg/mL | Tmax ([1]; 160 mg, Intermittent Dose Schedule A, 160 mg, Day -3, 3 patients, read-out: Tmax Median, (Range)): 1 h | AUC(0-t) ([1]; 160 mg, Intermittent Dose Schedule B, 160 mg, Day 1, 3 patients, read-out: AUC0–8 Geometric Mean (%CV)): 1.05 µg·h/mL | AUC(0-t) ([1]; 160 mg, Intermittent Dose Schedule B, 160 mg, Day 1, 3 patients, read-out: AUC0–24 Geometric Mean (%CV)): 3.7 µg·h/mL | Cmax ([1]; 160 mg, Intermittent Dose Schedule B, 160 mg, Day 1, 3 patients): 0.317 µg/mL | Tmax ([1]; 160 mg, Intermittent Dose Schedule B, 160 mg, Day 1, 3 patients, read-out: Tmax Median, (Range)): 12 h | AUC(0-t) ([1]; 160 mg, Intermittent Dose Schedule B, 160 mg, Day 8, 3 patients, read-out: AUC0–8 Geometric Mean (%CV)): 1.77 µg·h/mL | Cmax ([1]; 160 mg, Intermittent Dose Schedule B, 160 mg, Day 8, 3 patients): 0.325 µg/mL | Tmax ([1]; 160 mg, Intermittent Dose Schedule B, 160 mg, Day 8, 3 patients, read-out: Tmax Median, (Range)): 8 h | AUC(0-t) ([1]; 200 mg, Intermittent Dose Schedule A, 200 mg, Day 8, 4 patients, read-out: AUC0–8 Geometric Mean (%CV)): 4.46 µg·h/mL | Tmax ([1]; 200 mg, Intermittent Dose Schedule A, 200 mg, Day 8, 4 patients, read-out: Tmax Median, (Range)): 2 h | AUC(0-t) ([1]; 200 mg, Intermittent Dose Schedule A, 200 mg, Day 8, n = 2, read-out: AUC0–24 Geometric Mean (%CV)): 15.9 µg·h/mL | AUC(0-t) ([1]; 200 mg, Intermittent Dose Schedule A, 200 mg, Day -3, 4 patients, read-out: AUC0–8 Geometric Mean (%CV)): 3.48 µg·h/mL | AUC(0-t) ([1]; 200 mg, Intermittent Dose Schedule A, 200 mg, Day -3, 4 patients, read-out: AUC0–24 Geometric Mean (%CV)): 7.05 µg·h/mL | Cmax ([1]; 200 mg, Intermittent Dose Schedule A, 200 mg, Day -3, 4 patients): 1.03 µg/mL | Tmax ([1]; 200 mg, Intermittent Dose Schedule A, 200 mg, Day -3, 4 patients, read-out: Tmax Median, (Range)): 2 h | AUC(0-t) ([1]; 200 mg, Intermittent Dose Schedule B, 200 mg, Day 1, 4 patients, read-out: AUC0–8 Geometric Mean (%CV)): 3.19 µg·h/mL | AUC(0-t) ([1]; 200 mg, Intermittent Dose Schedule B, 200 mg, Day 1, 4 patients, read-out: AUC0–24 Geometric Mean (%CV)): 8.01 µg·h/mL | Cmax ([1]; 200 mg, Intermittent Dose Schedule B, 200 mg, Day 1, 4 patients): 0.734 µg/mL | Tmax ([1]; 200 mg, Intermittent Dose Schedule B, 200 mg, Day 1, 4 patients, read-out: Tmax Median, (Range)): 1.5 h | AUC(0-t) ([1]; 200 mg, Intermittent Dose Schedule B, 200 mg, Day 8, 4 patients, read-out: AUC0–8 Geometric Mean (%CV)): 5.8 µg·h/mL | Cmax ([1]; 200 mg, Intermittent Dose Schedule B, 200 mg, Day 8, 4 patients): 1.2 µg/mL | Tmax ([1]; 200 mg, Intermittent Dose Schedule B, 200 mg, Day 8, 4 patients, read-out: Tmax Median, (Range)): 1.5 h | AUC(0-t) ([1]; 200 mg, Intermittent Dose Schedule B, 200 mg, Day 8, n = 3, read-out: AUC0–24 Geometric Mean (%CV)): 14.7 µg·h/mL | Tmax ([1]; after the first dose, all three dosing schedules, range, 0.5–48 h, read-out: Median time to reach the peak plasma concentration (Tmax)): 2 h | Dose-exposure relationship ([1]; intermittent doses higher than 140 mg): less than linear dose-exposure relationship | Confirmed PR, number of patients [2]: one | SDs, number of patients [2]: three

— paper PMC10969742, “A Phase I Study of the Oral Dual-Acting Pan-PI3K/mTOR Inhibitor Bimiralisib in Patients with Advanced Solid Tumors” (Cancers, 2024)
